{"source": "patent US5227391A", "about": "“Method for treatment of neurodegenerative diseases” (R. J. Reynolds Tobacco Company, priority 1992, dated 1993)", "target": "high affinity nicotinic receptors", "details": "read-out: Ki (nM), inhibition of L-[3H]nicotine binding; mouse brain membranes (cerebellum removed), 10 nM L-[3H]nicotine, 2 hr at 4° C.; Ki calculated from IC50 by the method of Cheng et al.", "experimental": "Mice were killed by cervical dislocation. Brains were removed and placed on an ice-cold platform. […] Prior to each centrifugation step, the suspension was incubated at 37° C. for 5 min. to promote hydrolysis of endogenous acetylcholine. The final pellet was overlayered with buffer and stored at -70° C.\nThe binding of L-[^3 H]nicotine was measured using a 2 hr. incubation at 4° C. Incubations contained about 500 μg of protein and were conducted in 12 mm×75 mm polypropylene test tubes in a final incubation volume of 250 μl. The incubation buffer was Krebs-Ringers HEPES containing 200 mM TRIS buffer, pH 7.5. The binding reaction was terminated by filtration of the protein containing bound ligand onto glass fiber filters (Micro Filtration Systems) that had been soaked in buffer containing 0.5 percent polyethyleneimine. Filtration vacuum was -50 to -100 torr. Each filter was washed five times with 3 ml of ice-cold buffer. The filtration apparatus was cooled to 2° C. before use and was kept cold through the filtration process. […] The inhibition of L-[^3 H]nicotine binding by test compounds was determined by including one of eight different concentrations of the test compound in the incubation."}
{"smiles": "CN1CCC[C@@H]1c1cccnc1", "note": "[(R)-(+)-nicotine]", "values": [{"measurement": "Ki", "result": 113, "unit": "nM"}]}
